# PubChem BioAssay AID1963985 (Molecular Pharmacology Branch, DTP, NCI, 2024)
# Test system: 252836-082-R-J2-PDC tumor spheroids, viability
# Test: Anticancer human tumor 252836-082-R-J2-PDC patient-derived head and neck squamous cell carcinoma cell line growth inhibition [PI3K]
# Conditions: spheroids with HUVEC and MSC; for viability, T/C: stronger effect = lower value
# Summary of the method: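 Complex 3D spheroids (cancer cells + endothelial HUVEC + mesenchymal stem cells); drug pairs of targeted agent x inavolisib/alpelisib/duvelisib/copanlisib; half-log series from ~Cmax, max 10 microM if Cmax unknown; endpoint viability.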
# [1] = curve of first compound, second compound 0.0316 µM
# [2] = curve of first compound, second compound 0.1 µM
# [3] = curve of first compound, second compound 0.316 µM
# [4] = curve of first compound, second compound 1 µM
# [5] = curve of first compound, second compound 3.16 µM
# [6] = curve of first compound, second compound 10 µM
# [7] = second compound 0.0316 µM, first compound 0.0316 µM
# [8] = second compound 0.0316 µM, first compound 0.1 µM
# [9] = second compound 0.0316 µM, first compound 0.316 µM
# [10] = second compound 0.0316 µM, first compound 1 µM
# [11] = second compound 0.0316 µM, first compound 3.16 µM
# [12] = second compound 0.0316 µM, first compound 10 µM
# [13] = second compound 0.1 µM, first compound 0.0316 µM
# [14] = second compound 0.1 µM, first compound 0.1 µM
# [15] = second compound 0.1 µM, first compound 0.316 µM
# [16] = second compound 0.1 µM, first compound 1 µM
# [17] = second compound 0.1 µM, first compound 3.16 µM
# [18] = second compound 0.1 µM, first compound 10 µM
# [19] = second compound 0.316 µM, first compound 0.0316 µM
# [20] = second compound 0.316 µM, first compound 0.1 µM
# [21] = second compound 0.316 µM, first compound 0.316 µM
# [22] = second compound 0.316 µM, first compound 1 µM
# [23] = second compound 0.316 µM, first compound 3.16 µM
# [24] = second compound 0.316 µM, first compound 10 µM
# [25] = second compound 1 µM, first compound 0.0316 µM
# [26] = second compound 1 µM, first compound 0.1 µM
# [27] = second compound 1 µM, first compound 0.316 µM
# [28] = second compound 1 µM, first compound 1 µM
# [29] = second compound 1 µM, first compound 3.16 µM
# [30] = second compound 1 µM, first compound 10 µM
# [31] = second compound 3.16 µM, first compound 0.0316 µM
# [32] = second compound 3.16 µM, first compound 0.1 µM
# [33] = second compound 3.16 µM, first compound 0.316 µM
# [34] = second compound 3.16 µM, first compound 1 µM
# [35] = second compound 3.16 µM, first compound 3.16 µM
# [36] = second compound 3.16 µM, first compound 10 µM
# [37] = second compound 10 µM, first compound 0.0316 µM
# [38] = second compound 10 µM, first compound 0.1 µM
# [39] = second compound 10 µM, first compound 0.316 µM
# [40] = second compound 10 µM, first compound 1 µM
# [41] = second compound 10 µM, first compound 3.16 µM
# [42] = second compound 10 µM, first compound 10 µM
# 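Further: spheroids exposed to agents for seven days before readout.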
# 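Wherever viability, T/C is given: percent of vehicle DMSO control viability so 100% = untreated growth.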
compound,measurement,setting,value
C[C@@H](NC(=O)c1ncnc(N)c1Cl)c1ncc(C(=O)Nc2cc(C(F)(F)F)c(Cl)cn2)s1 + Cc1nc(NC(=O)N2CCCC2C(N)=O)sc1-c1ccnc(C(C)(C)C(F)(F)F)c1,IC50,[1],> 10000 nM
same,IC50,[2],> 10000 nM
same,IC50,[3],> 10000 nM
same,IC50,[4],> 10000 nM
same,IC50,[5],< 31.6 nM
same,IC50,[6],< 31.6 nM
same,"viability, T/C",[7],95.5%
same,"viability, T/C",[8],84.1%
same,"viability, T/C",[9],88.9%
same,"viability, T/C",[10],81.2%
same,"viability, T/C",[11],76.9%
same,"viability, T/C",[12],82.5%
same,"viability, T/C",[13],79.7%
same,"viability, T/C",[14],70.8%
same,"viability, T/C",[15],85.2%
same,"viability, T/C",[16],74.1%
same,"viability, T/C",[17],85.9%
same,"viability, T/C",[18],74.1%
same,"viability, T/C",[19],72%
same,"viability, T/C",[20],79.2%
same,"viability, T/C",[21],69.8%
same,"viability, T/C",[22],78.4%
same,"viability, T/C",[23],74.7%
same,"viability, T/C",[24],69.7%
same,"viability, T/C",[25],58.6%
same,"viability, T/C",[26],62%
same,"viability, T/C",[27],61.9%
same,"viability, T/C",[28],54.9%
same,"viability, T/C",[29],61.3%
same,"viability, T/C",[30],50.8%
same,"viability, T/C",[31],40%
same,"viability, T/C",[32],48.6%
same,"viability, T/C",[33],43.2%
same,"viability, T/C",[34],42.5%
same,"viability, T/C",[35],42.4%
same,"viability, T/C",[36],42.9%
same,"viability, T/C",[37],35.2%
same,"viability, T/C",[38],39.6%
same,"viability, T/C",[39],35.2%
same,"viability, T/C",[40],30.6%
same,"viability, T/C",[41],23.4%
same,"viability, T/C",[42],12.6%
CC(Cn1ccc(-c2ccc(C#N)c(Cl)c2)n1)NC(=O)c1cc(C(C)O)[nH]n1 (centres undefined) + CC(Nc1ncnc2nc[nH]c12)c1cc2cccc(Cl)c2c(=O)n1-c1ccccc1,IC50,[1],> 10000 nM
same,IC50,[2],> 10000 nM
same,IC50,[3],> 10000 nM
same,IC50,[4],> 10000 nM
same,IC50,[5],> 10000 nM
same,IC50,[6],> 10000 nM
same,"viability, T/C",[7],105%
same,"viability, T/C",[8],78.9%
same,"viability, T/C",[9],96.6%
same,"viability, T/C",[10],87%
same,"viability, T/C",[11],81.7%
same,"viability, T/C",[12],76.3%
same,"viability, T/C",[13],86.8%
same,"viability, T/C",[14],89.3%
same,"viability, T/C",[15],82.6%
same,"viability, T/C",[16],83%
same,"viability, T/C",[17],94.5%
same,"viability, T/C",[18],70.2%
same,"viability, T/C",[19],83.2%
same,"viability, T/C",[20],78.5%
same,"viability, T/C",[21],88.9%
same,"viability, T/C",[22],88.8%
same,"viability, T/C",[23],85.5%
same,"viability, T/C",[24],85.9%
same,"viability, T/C",[25],92.2%
same,"viability, T/C",[26],76.3%
same,"viability, T/C",[27],89.6%
same,"viability, T/C",[28],80.5%
same,"viability, T/C",[29],77%
same,"viability, T/C",[30],70.3%
same,"viability, T/C",[31],74%
same,"viability, T/C",[32],73.7%
same,"viability, T/C",[33],79.2%
same,"viability, T/C",[34],72.5%
same,"viability, T/C",[35],75%
same,"viability, T/C",[36],74.2%
same,"viability, T/C",[37],60.9%
same,"viability, T/C",[38],55.3%
same,"viability, T/C",[39],73.4%
same,"viability, T/C",[40],55.4%
same,"viability, T/C",[41],65.4%
same,"viability, T/C",[42],56.8%
CC(Nc1ccc2c(c1)OCCn1cc(N3C(=O)OCC3C(F)F)nc1-2)C(N)=O (centres undefined),"viability, T/C",compound 0.00316 µM,93% [middle of 8 runs]
same,"viability, T/C",compound 0.01 µM,96.8% [middle of 8 runs]
same,"viability, T/C",compound 0.0316 µM,81% [middle of 8 runs]
same,"viability, T/C",compound 0.1 µM,65.7% [middle of 8 runs]
same,"viability, T/C",compound 0.316 µM,51.8% [middle of 8 runs]
same,"viability, T/C",compound 1 µM,47.7% [middle of 8 runs]
CC(C)NCC(C(=O)N1CCN(c2ncnc3c2C(C)CC3O)CC1)c1ccc(Cl)cc1 (centres undefined) + Cc1nc(NC(=O)N2CCCC2C(N)=O)sc1-c1ccnc(C(C)(C)C(F)(F)F)c1,IC50,[1],977 nM
same,IC50,[2],784 nM
same,IC50,[3],834 nM
same,IC50,[4],461 nM
same,IC50,[5],< 31.6 nM
same,IC50,[6],< 31.6 nM
same,"viability, T/C",[7],87.3%
same,"viability, T/C",[8],73.3%
same,"viability, T/C",[9],76.3%
same,"viability, T/C",[10],47.9%
same,"viability, T/C",[11],30.2%
same,"viability, T/C",[12],22.1%
same,"viability, T/C",[13],87.8%
same,"viability, T/C",[14],73.7%
same,"viability, T/C",[15],64%
same,"viability, T/C",[16],47.7%
same,"viability, T/C",[17],29.5%
same,"viability, T/C",[18],19.2%
same,"viability, T/C",[19],70.3%
same,"viability, T/C",[20],67.3%
same,"viability, T/C",[21],68.9%
same,"viability, T/C",[22],44.5%
same,"viability, T/C",[23],31.7%
same,"viability, T/C",[24],21%
same,"viability, T/C",[25],55.6%
same,"viability, T/C",[26],50.3%
same,"viability, T/C",[27],60.1%
same,"viability, T/C",[28],40.2%
same,"viability, T/C",[29],29.5%
same,"viability, T/C",[30],19.1%
same,"viability, T/C",[31],41.3%
same,"viability, T/C",[32],48.1%
same,"viability, T/C",[33],43%
same,"viability, T/C",[34],36.5%
same,"viability, T/C",[35],25.8%
same,"viability, T/C",[36],17.2%
same,"viability, T/C",[37],32.8%
same,"viability, T/C",[38],36.1%
same,"viability, T/C",[39],27.8%
same,"viability, T/C",[40],21.6%
same,"viability, T/C",[41],19.8%
same,"viability, T/C",[42],10.1%
Cc1nc(NC(=O)N2CCCC2C(N)=O)sc1-c1ccnc(C(C)(C)C(F)(F)F)c1 (centres undefined),"viability, T/C",compound 0.0316 µM,86.2% [middle of 8 runs]
same,"viability, T/C",compound 0.1 µM,88.9% [middle of 8 runs]
same,"viability, T/C",compound 0.316 µM,81% [middle of 8 runs]
same,"viability, T/C",compound 1 µM,62.9% [middle of 8 runs]
same,"viability, T/C",compound 3.16 µM,48% [middle of 8 runs]
same,"viability, T/C",compound 10 µM,35% [middle of 8 runs]
same,IC50,"compound alone, run of 06/12/2023",2.64 µM [middle of 8 runs]
